Reference: patent US20190275040A1, “COMPOUNDS AND METHODS FOR TREATING OR PREVENTING ALZHEIMER'S DISEASE” (YALE UNIVERSITY, priority 2016, published 2019)

What was measured:
[1] = Brain and plasma levels after peripheral dosing (LC/MS/MS); type: in vivo, mouse
Procedure: In brain slices and in dissociated primary neuronal cultures, Aβo causes Fyn activation, Pyk2 activation, altered Glu-induced calcium signaling, dendritic spine loss and suppression of LTP. […] After developing LC/MS/MS methods to detect PF-719, the extent to which the Pyk2 inhibitor enters brain from peripheral dosing was determined. […] Continuous 25 mg/kg/d minipump i.p. infusion was chosen for treatment of APP/PS1 mice.

Pyk2 = Pyk2 (Homo sapiens, UniProt Q14289); assay: Pyk2 Ki of kinase inhibitors (CHEMBL & IUPHR-BPS database screen, Table 2); type: biochemical; conditions: Pyk2 versus Fyn
[2] = test system: Aβo-induced suppression of LTP in hippocampal slices; assay: Hippocampal CA3-CA1 LTP in acute brain slices with or without Aβo; type: cell-based, mouse; conditions: WT slices
Procedure: FIG. 3A depicts WT slices that were treated with either vehicle or Aβo 30 min prior to theta burst stimulation (TBS). The slope of the field excitatory postsynaptic potential (fEPSP) is plotted as a function of time. Data are graphed as mean±SEM (n=6-12). Inset, representative traces immediately before TBS and 60 min post-TBS (red) are superimposed. FIG. 3B depicts WT and Pyk2−/− brain slices in the absence of Aβo, plotted as in FIG. 3A. FIG. 3C depicts average fEPSPs at 50-60 min post-TBS plotted for the indicated conditions as mean±SEM (n=3-20). Where indicated, 500 nM PF719 kinase inhibitor was pre-incubated with WT slices for 60 min prior to addition of Aβo or vehicle for 30 min, and then TBS. One-way ANOVA, **, p<0.01.
The role of Pyk2 in Aβo-induced disruption of synaptic plasticity using hippocampal CA3 to CA1 LTP has also been evaluated, comparing WT and Pyk2−/− slices. […]
400-μm coronal slices were prepared as described elsewhere herein and submerged in a recording chamber (BSC-PC, Warner Instruments) containing aCSF with 2.4 mM CaCl2 that was continuously oxygenated (95% O2, 5% CO2). […] Extracellular field excitatory post-synaptic potentials (fEPSPs) were recorded using a glass microelectrode (2-6 MS2) (4878, World Precision Instruments) filled with aCSF, and placed in the Stratum radiatum of CA1 neurons. […]

[3] = test system: cultured mouse hippocampal neurons; assay: GFP-Pyk2 overexpression-induced dendritic spine loss in cultured hippocampal neurons; type: cell-based; conditions: PF-719 1 μM; Y27632 10 μM; DIV 17-21
From the text: FIG. 7A: TBS-T soluble human Alzheimer's disease brain extracts were immunoblotted with anti-Pyk2 or anti-pY402 Pyk2 specific antibodies. FIG. 7B: Densitometric analysis of the immunoblots from FIG. A. p-Pyk2/Pyk2 ratio values were normalized to control mean value. Data are graphed as mean±SEM (Control, n=10; AD, n=10). *p<0.05 by Student's two-tailed t test. FIG. 7C: Representative immunofluorescent images of Pyk2 immunoreactivity from hippocampal CA1 in WT and Pyk2 null mice at 12-months age. […] FIG. 7D: Hek293T cells were co-transfected with either control vector or flag-tagged Fyn and GFP-tagged Pyk2 or K457A kinase dead mutant. Lysates were immunoblotted with anti-GFP (for GFP tagged Pyk2 and K457A mutant), anti-Fyn, and anti-pSFK antibodies. FIG. 7E: Representative GFP fluorescent images of cultured mouse hippocampal neurons. […] FIG. 7G: Quantification of dendritic spine density in the transfected neurons.
FIG. 10A: GST-RBD pull-down assay from Hek293T cell lysate from cells expressing indicated plasmids. […] FIG. 10B: Levels of RhoA-GTP (RBD pull-down) and RhoA-total (5% lysate) were quantified by densitometric measurement. […] FIG. 10D: Quantification of RhoA-GTP/total RhoA ratio by densitometric analysis. […] FIG. 10E: Representative GFP fluorescence images of the cultured hippocampal neurons. […] FIG. 10F: Quantification of dendritic spine density. […]

Pyk2, sequence (Q14289 whole entry, species assumed): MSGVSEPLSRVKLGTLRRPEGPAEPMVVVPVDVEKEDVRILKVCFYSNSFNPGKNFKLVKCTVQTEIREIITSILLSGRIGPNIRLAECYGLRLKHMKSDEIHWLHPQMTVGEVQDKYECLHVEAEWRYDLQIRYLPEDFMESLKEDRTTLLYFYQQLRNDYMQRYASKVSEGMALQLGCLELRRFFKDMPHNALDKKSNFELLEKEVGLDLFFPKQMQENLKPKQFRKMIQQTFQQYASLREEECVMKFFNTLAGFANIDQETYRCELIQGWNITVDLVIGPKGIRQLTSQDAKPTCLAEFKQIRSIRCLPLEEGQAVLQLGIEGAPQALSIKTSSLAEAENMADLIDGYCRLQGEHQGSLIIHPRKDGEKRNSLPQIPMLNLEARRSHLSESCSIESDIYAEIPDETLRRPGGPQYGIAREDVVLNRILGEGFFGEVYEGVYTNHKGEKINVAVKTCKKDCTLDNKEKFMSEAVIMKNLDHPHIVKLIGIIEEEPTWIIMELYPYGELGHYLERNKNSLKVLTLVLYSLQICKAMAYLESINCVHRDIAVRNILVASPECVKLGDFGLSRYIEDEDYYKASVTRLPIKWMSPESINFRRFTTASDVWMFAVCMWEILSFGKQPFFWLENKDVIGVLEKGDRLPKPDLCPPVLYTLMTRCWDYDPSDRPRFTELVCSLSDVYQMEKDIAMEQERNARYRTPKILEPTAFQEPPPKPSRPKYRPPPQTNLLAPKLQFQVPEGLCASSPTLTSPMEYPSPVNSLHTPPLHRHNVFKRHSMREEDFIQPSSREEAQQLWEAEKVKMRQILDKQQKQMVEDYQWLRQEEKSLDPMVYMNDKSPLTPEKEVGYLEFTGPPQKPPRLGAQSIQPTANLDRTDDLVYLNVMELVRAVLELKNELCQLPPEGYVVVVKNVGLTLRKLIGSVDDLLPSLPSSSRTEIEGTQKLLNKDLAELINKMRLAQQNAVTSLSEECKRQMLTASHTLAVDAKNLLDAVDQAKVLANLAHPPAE

brain level above the Ki ([1]; 5 mg/kg, 90 min): 30 fold | Kp at 90 min ([1]; mouse, brain and plasma, other: i.p. or p.o., single dose 5 mg/kg i.p. or p.o., 90 min, read-out: brain level as share of plasma level): ~0.3 | concentration at 90 min ([1]; mouse, brain, other: i.p. or p.o., single peripheral dose of 5 mg/kg i.p. or p.o., at 90 min): 450 ± 110 nM | half-life ([1]; mouse, in vivo, other: i.p. or p.o., single dose 5 mg/kg i.p. or p.o.): 360 min | Oral bioavailability ([1]; p.o. compared with i.p.): equal | Inhibition Character (Pyk2): Pyk2 selective
SMILES: CCOc1ccc2nc(SCc3nc(N)nc(N4CCOCC4)n3)sc2c1 [PF-719, 4-(((6-ethoxybenzo[d]thiazol-2-yl)thio)methyl)-6-morpholino-1,3,5-triazin-2-amine]
Aβo-induced suppression of LTP ([2]; 500 nM, Aβo 30 min before TBS): protects these slices from Aβo-induced suppression | LTP without Aβo ([2]; nM concentrations (500 nM, 60 min pre-incubation)): does not block LTP | GFP-Pyk2-induced spine loss [3]: partial rescue
